Biological target: T1, heteromeric KV7.2/KV7.3 channels (KCNQ2, KCNQ3) (Homo sapiens, UniProt O43525+O43526)
T1 construct: expressed in transfected cells; host or cells: CHO-K1
Assay: Automated patch-clamp (Sophion Qube 384) potency assay against KV7.2/KV7.3 channels
Format: cell-based
Conditions: CHO-K1/Kv7.2/Kv7.3 cells; for EC50: EC50 from concentration-response of shift in Vhalf, 10 concentrations up to 30 μM, read-out: Kv7.2/7.3 EC50; for Kv7.2/7.3 ΔV1/2: maximal shift in the Vhalf from the top of the curve
Description: Assessment of In Vitro Potency Against KV7.2/KV7.3 Channels
An automated patch-clamp assay on the Sophion Qube 384 was developed for potency testing to identify small molecule activators of heteromeric KV7.2/KV7.3 channels (KCNQ2, Uniprot ID 043526; KCNQ3, Uniprot 043525).
The cell line used was a stably transfected CHO-K1 cell line with constitutive KV7.2/KV7.3 expression.
CHO-K1/Kv7.2/Kv7.3 cells were maintained in the following culture media: • DMEM/F-12 with GlutaMAX™ (Gibco 31331-028), • 10% Fetal clone 2 serum (Perbio Science SH30066.03), • 1 mg/ml Geneticin™ selective antibiotic (G418, Invitrogen 1013027), and • 5 μg/ml BlasticidinS HCl (Invivogen Ant-bl-5).
On the day of the experiment, cells were resuspended in serum free media, counted and diluted to a final concentration of 3.5×10^6 cells per ml of media.
Cells were then placed onto the Sophion Qube 384 and rested for a minimum of 1 hour.
The following solutions were used for recording: • extracellular solution (in mM): 145 NaCl, 4 KCl, 1 MgCl2, 2 CaCl2), 10 HEPES, 10 glucose, pH 7.4, 315-320 mOsm. • intracellular solution (in mM): 120 KCl, 5.74 CaCl2), 1.75 MgCl2, 10 EGTA, 10 HEPES, 5 Na2ATP, pH 7.2, adjusted to 315 mOsm with sucrose.
After establishing the whole-cell configuration, cells were held at −80 mV throughout the experiment. A current-voltage (I-V) protocol stepping from −100 to +20 mV for 1 second was applied to measure Kv7.2/Kv7.3 currents, each step was followed by a 200 ms pulse to 0 mV to measure the tail currents. From the I-V protocol a Boltzmann fit was applied to generate activation curves. Data were sampled at 25 kHz and filtered at 5 kHz (Bessel). Data were produced using multihole QChips. The I-V protocol was applied several times to establish the response in control conditions (typically 0.3% DMSO) and in the presence of the test compound.
Data were reviewed in Sophion Analyser version 6.5.2 (Sophion Bioscience) for recording quality and filters were applied to remove any failed wells. Leak subtraction was applied to all recordings. Data filters for multihole QChips were typically: seal resistance>4 MΩ, capacitance >20 pF, baseline VHalf between 0 to −40 mV, baseline holding current between −2 to 2 nA, baseline steady state current at 20 mV >4 nA unless otherwise stated.
Analysis of Data for Assessment of Potency
10 concentrations of test compounds were applied to individual wells in quadruplicate to assess potency as a 1 in 3 dilution series from the maximal concentration of 30 μM. The average shift in the voltage for half activation (Vhalf) for each concentration was used to generate concentration-response curves fitted with a 4-parameter logistic model to estimate the EC50 from the point of inflection of the curve and the maximal shift in the Vhalf from the top of the curve.
The lower the EC50 value, the higher the potency of the analyzed compound. The selectivity criteria is assigned on the basis of the maximal shift in the Vhalf at 30 μM. […] In Table 3, ND means that selectivity was not determined.

Compound	EC50	Kv7.2/7.3 ΔV1/2
O=C(NCc1ccnc(OCC(F)(F)F)n1)N[C@@H]1CCc2ccc(F)cc21 [Compound 167]	10200 nM	20.68 mV
Cc1cccc2c1[C@H](NC(=O)NCc1ccnc(OCC(F)(F)F)c1)CC2 [Compound 168]	2240 nM	37.25 mV
Cc1cccc2c1[C@@H](NC(=O)NCc1ccnc(OCC(F)(F)F)c1)CC2 [Compound 169]	1400 nM	24.08 mV
O=C(NCc1ccnc(OCC(F)(F)F)c1)N[C@@H]1CCOc2ccc(F)cc21 [Compound 170]	1540 nM	42.82 mV
O=C(NCc1ccnc(OCC(F)(F)F)n1)N[C@@H]1CCc2ccccc21 [Compound 171]	1240 nM	48.06 mV
O=C(NCc1ccnc(OCC(F)(F)F)c1)N[C@@H]1CCc2sccc21 [Compound 172]	1980 nM	55.13 mV
O=C(NCc1ccnc(OCC(F)(F)F)c1)N[C@H]1CSc2ccccc2C1 [Compound 173]	330 nM	31.15 mV
O=C(NCc1ccnc(OCC(F)(F)F)c1)N[C@@H]1CCSc2ccccc21 [Compound 174]	1240 nM	47.65 mV
O=C(NCc1ccnc(OCC(F)(F)F)c1)N[C@H]1CCSc2ccccc21 [Compound 175]	1220 nM	20.52 mV
O=C(NCc1ccnc(OCC(F)(F)F)c1)N[C@@H]1CCc2c(F)cc(F)cc21 [Compound 176]	1090 nM	40.89 mV
COc1ccc2c(c1)CCC[C@H]2NC(=O)NCc1ccnc(OCC(F)(F)F)c1 [Compound 177]	2280 nM	54.8 mV
COc1ccc2c(c1)CCC[C@@H]2NC(=O)NCc1ccnc(OCC(F)(F)F)c1 [Compound 178]	8110 nM	27.73 mV
O=C(NCc1ccnc(OCC(F)(F)F)c1)N[C@@H]1CCOc2c(F)cccc21 [Compound 179]	2000 nM	33.61 mV
O=C(NCc1ccnc(OCC(F)(F)F)n1)N[C@@H]1CCCc2ccccc21 [Compound 180]	5830 nM	24.71 mV
O=C(NCc1ccnc(OCC(F)(F)F)c1)N[C@H]1CCOc2c(F)cccc21 [Compound 181]	700 nM	24.16 mV
COc1ccc2c(c1)[C@H](NC(=O)NCc1ccnc(OCC(F)(F)F)c1)CCO2 [Compound 182]	1550 nM	37.46 mV
COc1cccc2c1CCC[C@H]2NC(=O)NCc1ccnc(OCC(F)(F)F)c1 [Compound 183]	2490 nM	43.65 mV
Cc1cccc2c1OCC[C@H]2NC(=O)NCc1ccnc(OCC(F)(F)F)c1 [Compound 184]	1230 nM	42.17 mV
Cc1cccc2c1OCC[C@@H]2NC(=O)NCc1ccnc(OCC(F)(F)F)c1 [Compound 185]	5390 nM	22.68 mV
O=C(NCc1ccnc(OCC(F)(F)F)c1)N[C@@H]1COc2ccccc2C1 [Compound 186]	290 nM	34.07 mV
O=C(NCc1ccnc(OCC(F)(F)F)c1)N[C@H]1COc2ccccc2C1 [Compound 187]	2330 nM	21.99 mV
O=C(NCc1ccnc(OCC(F)(F)F)c1)N[C@@H]1CCC[C@H]1c1ccc(F)cc1 [Compound 188]	470 nM	28.3 mV
O=C(NCc1ccnc(OCC(F)(F)F)c1)N[C@H]1CCOc2cccc(F)c21 [Compound 189]	2720 nM	32.95 mV

Compound	EC50	Kv7.2/7.3 ΔV1/2
COc1ccc2c(c1)C[C@H](NC(=O)NCc1ccnc(OCC(F)(F)F)c1)CC2 [Compound 190]	820 nM	20.58 mV
O=C(NCc1ccnc(OCC(F)(F)F)c1)N[C@@H]1CCCc2cc(F)ccc21 [Compound 191]	1170 nM	46.54 mV
CC1(C)C[C@@H](NC(=O)NCc2ccnc(OCC(F)(F)F)c2)c2ccccc21 [Compound 192]	1690 nM	47.09 mV
CC1(C)C[C@H](NC(=O)NCc2ccnc(OCC(F)(F)F)c2)c2ccccc21 [Compound 193]	520 nM	23.15 mV
COc1cccc(N2CC[C@@H](NC(=O)NCc3ccnc(OCC(F)(F)F)c3)C2)c1 [Compound 194]	2580 nM	29.55 mV
O=C(NCc1ccnc(OCC(F)(F)F)c1)N[C@@H]1CCO[C@@H](c2ccccc2)C1 [Compound 195]	6670 nM	39.68 mV
O=C(NCc1ccnc(OCC(F)(F)F)c1)N[C@@H]1CC[C@H](c2ccccc2)C1 [Compound 196]	1540 nM	56.75 mV
O=C(NCc1ccnc(OCC(F)(F)F)c1)N[C@H]1CCO[C@@H]1c1ccccc1 [Compound 197]	7620 nM	39.86 mV
O=C(NCc1ccnc(OCC(F)(F)F)c1)N[C@H]1CC[C@@H](c2ccccc2F)C1 [Compound 198]	1370 nM	76.04 mV
O=C(NCc1ccnc(OCC(F)(F)F)c1)N[C@@H]1COc2c(F)cccc21 [Compound 199]	1820 nM	36.36 mV
CC1(C)C[C@H](NC(=O)NCc2ccnc(OCC(F)(F)F)c2)c2ccccc2O1 [Compound 200]	2510 nM	25.04 mV
O=C(NCc1ccnc(OCC(F)(F)F)c1)NC[C@H]1COc2ccccc2C1 [Compound 201]	2220 nM	27.95 mV
COc1ccccc1N1CC[C@@H](NC(=O)NCc2ccnc(OCC(F)(F)F)c2)C1 [Compound 202]	4340 nM	26.02 mV
CO[C@@H]1CCOc2c(NC(=O)NCc3ccnc(OCC(F)(F)F)c3)cccc21 [Compound 203]	2870 nM	20.92 mV
O=C(NCc1ccnc(OCC(F)(F)F)c1)N[C@@H]1CCOc2cc(F)ccc21 [Compound 204]	980 nM	38.78 mV
C[C@@H](Oc1cc(CNC(=O)N[C@@H]2CCOc3ccccc32)ncn1)C(F)(F)F [Compound 205]	7090 nM	40.29 mV
C[C@@H](Oc1cc(CNC(=O)N[C@@H]2CCOc3ccc(F)cc32)ncn1)C(F)(F)F [Compound 206]	6780 nM	33.98 mV
C[C@@H](Oc1cc(CNC(=O)N[C@@H]2COc3ccccc32)ncn1)C(F)(F)F [Compound 207]	10200 nM	23.90 mV
C[C@@H](Oc1cc(CNC(=O)N[C@@H]2COc3ccc(F)cc32)ncn1)C(F)(F)F [Compound 208]	8150 nM	23.96 mV
COc1ccc2c(c1)[C@H](NC(=O)NCc1cc(O[C@H](C)C(F)(F)F)ncn1)CCO2 [Compound 209]	9700 nM	37.49 mV
COc1ccc([C@@H](C)NC(=O)NCc2ccnc(OCC(F)(F)F)c2)cc1 [Compound 210]	4540 nM	27.31 mV
O=C(NCc1ccc(OC(F)(F)F)cc1)NCc1ccnc(OCC(F)(F)F)c1 [Compound 211]	3130 nM	22.62 mV
O=C(NCc1ccnc(OCC(F)(F)F)c1)N[C@@H](C1CC1)C(F)(F)F [Compound 212]	1490 nM	41.94 mV
